Data reported in PMC10740580, “Benzothiazole-Phthalimide Hybrids as Anti-Breast Cancer and Antimicrobial Agents” (Antibiotics, 2023).
Values after ≈ are worked out from the molar mass of the structure shown.

Legend:
[1] = system: Staphylococcus aureus 25923; assay: Broth microdilution, S. aureus ATCC 25923; type: cell-based; details: 37 °C; for MIC: Staphylococcus aureus, 25923, 24 h
Excerpt: (§1) Compounds 3a–h were examined in accordance with the Clinical Laboratory Standards Institute (CLSI) recommendations, by means of the broth microdilution method, against gram-positive bacteria (Staphylococcus aureus 25923, Staphylococcus aureus 29213, Staphylococcus aureus 43300, Enterococcus faecalis 29212) and gram-negative bacteria (Escherichia coli 25922, Klebsiella pneumoniae 13883, Pseudomonas aeruginosa 27853) belonging to the ATCC collection, using levofloxacin as a reference drug. Table 3 lists the results, expressed as MIC (µg/mL). […] The lack of activity observed for compound 3d could be conceivably due to its poor solubility in the culture medium containing the inoculum.
(§2) Following the recommendations of the CLSI (Clinical and Laboratory Standards Institute, 2012), the broth microdilution method was used to determine the in vitro minimum inhibitory concentrations (MICs, µg/mL).. The concentration of the investigated compounds was set to its highest value to create stock solutions. Then, the stock solutions were diluted 1:10 with Cation-Adjusted Mueller Hinton Broth (Oxoid, Milan, Italy). After that, a series of concentrations from 512 µg/mL to […] were obtained in the wells by performing two-fold serial dilutions in the appropriate test medium. The diluent used to create the stock solution was 100% DMSO. We used the following bacterial strains from the ATCC collection that were available as freeze-dried discs: gram-positive strains such as S. aureus ATCC 25923, 29213, and 43300, and E. faecalis ATCC 29212, and gram-negative ones such as E. coli ATCC 25922, K. pneuomoniae ATCC 13883, and P. aeruginosa ATCC 27853. To preserve the purity of cultures and to allow their reproducibility, cryovials of all microbial strains were set up in the medium and stored at −80 °C. Mueller Hinton Broth (MHB) was used to prepare pre-cultures of each bacterial strain, which were then incubated for 3–5 h at 37 °C. In accordance with CLSI procedure M7-A9, the turbidity of the bacterial cell suspension was calibrated to 0.5 McFarland Standard using a spectrophotometric approach (OD625 nm 0.08–0.10). The standardized suspension was then further diluted (1:100) with MHB to reach 1–2 × 10^6 CFU/mL. A 200 µL aliquot of the final inoculum was inserted into each well. As a control for growth, several wells containing only inoculated broth were prepared. The plates were incubated at 37 °C for 24 h, and the MIC values were calculated as the lowest concentration of compounds at which there was no optically detectable bacteria growth. Each experiment was carried out in duplicate and repeated twice to determine the MICs. Levofloxacin served as the study’s standard reference antibiotic. Additionally, the antibacterial activity of DMSO alone (used as a diluent for the investigated compounds) was examined; therefore, volumes of this solvent with a concentration of less than 5% were utilized throughout the experimentation.

gram-positive bacteria = assay: Broth microdilution, gram-positive bacteria; type: cell-based; details: read-out: MIC against gram-positive bacteria
Excerpt: as §1
Following the recommendations of the CLSI (Clinical and Laboratory Standards Institute, 2012), the broth microdilution method was used to determine the in vitro minimum inhibitory concentrations (MICs, µg/mL).. The concentration of the investigated compounds was set to its highest value to create stock solutions. Then, the stock solutions were diluted 1:10 with Cation-Adjusted Mueller Hinton Broth (Oxoid, Milan, Italy). After that, a series of concentrations from 512 µg/mL to […] were obtained in the wells by performing two-fold serial dilutions in the appropriate test medium. The diluent used to create the stock solution was 100% DMSO. […]

[2] = system: Pseudomonas aeruginosa 27853; assay: Broth microdilution, P. aeruginosa ATCC 27853; type: cell-based; details: 24 h, 37 °C
Excerpt: as §1, §2

gram-negative bacteria = assay: Broth microdilution, gram-negative bacteria; type: cell-based; details: read-out: MIC against gram-negative bacteria
Excerpt: as §1
Following the recommendations of the CLSI (Clinical and Laboratory Standards Institute, 2012), the broth microdilution method was used to determine the in vitro minimum inhibitory concentrations (MICs, µg/mL).. The concentration of the investigated compounds was set to its highest value to create stock solutions. Then, the stock solutions were diluted 1:10 with Cation-Adjusted Mueller Hinton Broth (Oxoid, Milan, Italy). After that, a series of concentrations from 512 µg/mL to […] were obtained in the wells by performing two-fold serial dilutions in the appropriate test medium. The diluent used to create the stock solution was 100% DMSO. We used the following bacterial strains from the ATCC collection that were available as freeze-dried discs: gram-positive strains such as S. aureus ATCC 25923, 29213, and 43300, and E. faecalis ATCC 29212, and gram-negative ones such as E. coli ATCC 25922, K. pneuomoniae ATCC 13883, and P. aeruginosa ATCC 27853. To preserve the purity of cultures and to allow their reproducibility, cryovials of all microbial strains were set up in the medium and stored at −80 °C. Mueller Hinton Broth (MHB) was used to prepare pre-cultures of each bacterial strain, which were then incubated for 3–5 h at 37 °C. […]

angiogenesis = details: previous study, reduced side effects compared to thalidomide; cited from earlier work
MDA-MB-231 cells = assay: TUNEL assay (DNA damage); type: cell-based, human; details: 50 μM, 24 h
Method: To further assess the effect of 3h treatment in MDA-MB-231, the terminal deoxynucleotidyl transferase dUTP nick-end labeling (TUNEL) assay was used. Thus, 3h or Thalidomide, as reference drug, were administered to the cells, for 24 h, at 25 and 50 μM concentrations, respectively, or with only the vehicle (DMSO), as negative control and then processed as outlined in the experimental section. […] Nuclei were counterstained with blue DAPI (Figure 2, panels A), and merge channels were also shown (Figure 2, panels C), where it is evident the perfect superposition of green and blue signals. […] Images taken from bright fields were also included (Figure 2, panels D).
DNA damage and cell death were analyzed by means of the TUNEL assay as indicated by the manufacturer’s protocols (CF™488A TUNEL Assay Apoptosis Detection Kit, Biotium, Hayward, CA, USA), with few changes, as in [42]. DAPI staining (0.2 μg/mL, Sigma Aldrich, Milan, Italy) was adopted for cell nuclei. Observations were made at 20× magnification using a fluorescence microscope (Leica DM 6000, Leica Microsystem Srl, Buccinasco, Italy). LAS-X software (Version: 3.5.7.23225; Leica Microsystem Srl, Buccinasco, Italy) was employed for the acquisition and processing of the images. Images are representative of two separate experiments from which different fields were acquired.
Figure 2 TUNEL assay. […]

Structure (SMILES)	MIC [1] [mg/L]	MIC (gram-positive bacteria) [mg/L]	MIC [2] [mg/L]	MIC (gram-negative bacteria) [mg/L]	antiangiogenic activity (angiogenesis)	MIC S.a. 25923 ([1]; 24 h) [mg/L]	DNA damage (TUNEL, green nuclear fluorescence) (MDA-MB-231 cells)
COc1cc2nc(N3C(=O)c4ccccc4C3=O)sc2cc1OC [3f, 2-[5,6-Dimethoxy-1,3-benzothiazol-2-yl]-1H-isoindole-1,3(2H)-dione]	32 (≈ 94 µM)	32 to 64 (≈ 94 to 188 µM)	64 (≈ 188 µM)	64 (≈ 188 µM)			
O=C1c2ccccc2C(=O)N1c1nc2ccccc2s1 [3a, 2-(1,3-benzothiazol-2-yl)-1H-isoindole-1,3(2H)-dione]	64 (≈ 228 µM)		64 (≈ 228 µM)		performed as antiangiogenic agents		
Cc1ccc2nc(N3C(=O)c4ccccc4C3=O)sc2c1 [3d, 2-[6-Methyl-1,3-benzothiazol-2-yl]-1H-isoindole-1,3(2H)-dione]	> 512		> 512		performed as antiangiogenic agents		
O=C1c2ccccc2C(=O)N1c1nc2ccc(F)cc2s1 [3b, 2-(6-Fluoro-1,3-benzothiazol-2-yl)-1H-isoindole-1,3(2H)-dione]	64 (≈ 215 µM)		64 (≈ 215 µM)				
O=C1c2ccccc2C(=O)N1c1nc2ccc(Oc3ccccc3)cc2s1 [3h, 2-[6-Phenoxy-1,3-benzothiazol-2-yl]-1H-isoindole-1,3(2H)-dione]	16 (≈ 43 µM)		32 (≈ 85.9 µM)	32 (≈ 85.9 µM)		16 (≈ 43 µM)	promoted DNA damage
O=C1c2ccccc2C(=O)N1c1nc2ccc(O)cc2s1 [3g, 2-[6-Hydroxy-1,3-benzothiazol-2-yl]-1H-isoindole-1,3(2H)-dione]	32 (≈ 108 µM)	32 to 64 (≈ 108 to 216 µM)	64 (≈ 216 µM)	64 (≈ 216 µM)			
COc1ccc2nc(N3C(=O)c4ccccc4C3=O)sc2c1 [3e, 2-[6-Methoxy-1,3-benzothiazol-2-yl]-1H-isoindole-1,3(2H)-dione]	32 (≈ 103 µM)		64 (≈ 206 µM)				
O=C1c2ccccc2C(=O)N1c1nc2ccc(C(F)(F)F)cc2s1 [3c, 2-[6-Trifluoromethyl-1,3-benzothiazol-2-yl]-1H-isoindole-1,3(2H)-dione]	128 (≈ 367 µM)		128 (≈ 367 µM)				
